Measurements: article PMC5700124 (Scientific Reports, 2017)
“And” between values parts separate entries of the source, which are not always exact repeats. Equal entries are not always repeated. Where two headings read alike, the source gives them in different places.

Legend:
α2 adrenoceptor subtypes = system: α2 adrenoceptor subtypes; design: method as in PMID 7908054; settings: cited from earlier work
α2 adrenoceptors [1] = system: α2 adrenoceptors; design: method as in Jakobsen and colleagues[14]; settings: porcine brain; low dose 0.15 mg/kg vs 0.7 mg/kg; ref Jakobsen and colleagues[14]; cited from earlier work
[2] = system: [^11C]mirtazepin binding in porcine brain; design: method as in Smith et al.[34]; settings: ref Smith et al.[34], cited from earlier work
[3] = design: method as in Jakobsen et al.[14]; settings: pigs; challenge, compared with yohimbine; ref Jakobsen et al.[14]; cited from earlier work
α2 adrenoceptor [4] = settings: parieto-occipital cortex, pH 7.5, 25.0 °C, mg^2+ 1 mM, blocking of NS adrenaline 10 μM, cited from earlier work
α2 adrenoceptor [5] = settings: cerebral cortex, pH 7.4, 25.0 °C, mg^2+ 0, blocking of NS phentolamine 10 μM, cited from earlier work
α2 adrenoceptor [6] = biological target: α2 adrenoceptor; design: method as in Rout et al.[32]; settings: cortex, pH 7.0, 25.0 °C, blocking of NS noradrenaline 100 μM, ref Rout et al.[32], cited from earlier work
α2 adrenoceptors [7] = assay: Eadie-Hofstee Plot of PET binding potentials (receptor density Bmax and KD in vivo); design: species or system rat
From the text: The values of BPND enabled us to determine the α2 adrenoceptor density in vivo. As presented in Fig. 4A, we estimated values of receptor density, Bmax, and receptor affinity (1/KD) by means of Eadie-Hofstee plots. We calculated the bound quantity according to eq. 2, based on the information of the BPND and specific activity. We found the greatest receptor densities in thalamus, caudate putamen, and cortical areas, with the lowest densities in cerebellum and olfactory bulb as presented in Fig. 4B. The regional receptor densities are listed in detail in Table 2 and specific activity in Table 3.
We derived the present method from well-known principles of kinetics. We identified the following six steps to the determination of binding parameters of radioligands that achieve receptor occupancy. […] The variable B is the bound quantity of the ligand, and BPND is the binding potential of the radioligand at the specific degree of occupancy. To solve the equation of the Eadie-Hofstee plot for the two parameters, it is necessary to know the bound quantities of the ligand and the binding potentials in at least two conditions of different occupancy. The bound quantity is related to the binding potential by the relationship,2 B=M(BPND/1+BPND), where M is the total mass of the ligand per unit volume of brain tissue, calculated from the known specific activity of the radioligand.
The sixth and final step was the graphical solution to the Eadie-Hofstee Plot of eq. (1) (Eadie 1952, Hofstee 1952), where B is the bound quantity and BPND is the binding potential of ligands. We calculated the bound quantity from the relationship described by eq. 2.

plasma proteins = settings: in the circulation; cited from earlier work
α2 adrenoceptors [8] = assay: PET of [^11C]yohimbine binding in rat brain at baseline and at challenge with unlabeled yohimbine; settings: for Volumes of Distribution, VT, BASE: baseline; for Volumes of Distribution, VT, BASE / Volumes of Distribution, VT, COLD: individual rats 1-5; for Volumes of Distribution, VT, COLD: challenge with unlabeled yohimbine 0.3 mg/kg i.v.
α2 adrenoceptors [9] = settings: cited from earlier work

COC1(C2=NCCN2)COc2ccccc2O1 (stereo not shown) [RX821002]
affinity to α2 adrenoceptor subtypes (α2 adrenoceptor subtypes): higher affinity to α2A and α2C than to α2B
decline of VT of [^11C]yohimbine (α2 adrenoceptors [1]): greater decline of the value of VT than the higher dose of 0.7 mg/kg
reduction of [^11C]mirtazepin binding ([2]; 0.1 mg/kg): 35%
reduction of [^11C]mirtazepin binding ([2]; 1 mg/kg): failed to inhibit the binding further
effect on CBF [3]: opposite effect

COC1(C2=NCCN2)COc2ccccc2O1 (stereo not shown) [[^3H]RX821002]
Kd (α2 adrenoceptor [4]; ref Ribas et al.[7]): 0.57 nM
Kd (α2 adrenoceptor [4]; ref Ribas et al.[68]): 0.5 nM

COC(=O)[C@@H]1[C@H]2C[C@H]3c4[nH]c5ccccc5c4CCN3C[C@@H]2CC[C@@H]1O [[^3H]yohimbine]
Kd (α2 adrenoceptor [5]; ref Brown et al.[44]): 5.2 nM
Kd (α2 adrenoceptor [5]; ref Brown et al.[45]): 5.3 nM

[11CH3]OC(=O)[C@@H]1[C@H]2C[C@H]3c4[nH]c5ccccc5c4CCN3C[C@@H]2CC[C@@H]1O [[^11C]yohimbine]
fraction bound to plasma proteins (plasma proteins): 82%
radioactive metabolites in plasma (α2 adrenoceptors [9]; data from two rats): no radioactive metabolites

CC(N)Cc1ccccc1 (stereo not shown) [amphetamine]
change of VND(b) and fP of [^11C]yohimbine (α2 adrenoceptors [9]; amphetamine 2 mg/kg challenge): did not change
